The subject of one experiment is HL-60. The experiment in a line: Cytotoxicity against human HL60 cells after 48 hrs by MTT assay. The format is functional, cell-based. The settings on record: HL-60, 48 h.
Experiment [1] concerns SW480. Briefly: Cytotoxicity against human SW480 cells after 48 hrs by MTT assay. The format is functional, cell-based. The settings on record: SW480, 48 h.
For a further experiment, the system named is A549. Briefly: Cytotoxicity against human A549 cells after 48 hrs by MTT assay. Format: functional, cell-based. The settings on record: A549, 48 h.
Experiment [2] addresses Serine/threonine-protein kinase mTOR (Homo sapiens) (UniProt P42345). The experiment in a line: Inhibition of mTOR (unknown origin) assessed as ratio of cytoplasmic to nuclear level of eukaryotic initiation factor 4E.
The test system of another experiment is SMMC-7721. The experiment in a line: Cytotoxicity against human SMMC7721 cells after 48 hrs by MTT assay. Format: functional, cell-based. The settings on record: SMMC-7721, 48 h.
The test system of experiment [3] is MCF7. Briefly: Cytotoxicity against human MCF7 cells after 48 hrs by MTT assay. Format: functional, cell-based. Conditions: MCF7, 48 h.
The subject of experiment [4] is SW480. The experiment in a line: Ratio of cisplatin IC50 to compound IC50 for human SW480 cells. Format: functional.
Experiment [5] relates to MCF7. Briefly: Ratio of cisplatin IC50 to compound IC50 for human MCF7 cells. Format: functional.

For the compound `CCc1n(Cc2c(-c3ccccc3)oc3ccccc23)cc[n+]1CC(=O)c1ccc2ccccc2c1`, the IC50 with HL-60 stood at 0.61 µM; in the experiment on SW480 [1] it was 3.14 µM; with A549, 5.35 µM; in the experiment on SMMC-7721, 2.3 µM; in the experiment with MCF7 [3], 3.03 µM. The Ratio in experiment [2] is 1.55.
`O=C(C[n+]1cnn(Cc2c(-c3ccccc3)oc3ccccc23)c1)c1ccc2ccccc2c1`: the IC50 in the experiment with HL-60 is 2.33 µM; in the experiment on SW480 [1], 2.89 µM; with A549 it was 2.06 µM; in the experiment on SMMC-7721, 1.86 µM; in the experiment on MCF7 [3], 3.11 µM. Besides, the Ratio in experiment [2] was 0.96.
Consider `O=C(C[n+]1cnn(Cc2c(-c3ccccc3)oc3ccccc23)c1)c1ccccc1`, for which the IC50 was found to be 3.51 µM in the experiment with HL-60; 17.1 µM in the experiment on SW480 [1]; 13.7 µM in the experiment with A549; 5.76 µM in the experiment with SMMC-7721; 14.7 µM with MCF7 [3]. The Ratio in experiment [2] is 1.11.
Regarding `CCc1n(Cc2c(-c3ccccc3)oc3ccccc23)cc[n+]1Cc1ccccc1Br.[Br-]`, the IC50 was 0.08 µM in the experiment with HL-60; 0.47 µM with SW480 [1]; 0.55 µM in the experiment on A549; 0.52 µM in the experiment on SMMC-7721; 0.51 µM in the experiment on MCF7 [3]. In addition, the figures for the “Ratio IC50” value in the experiment on SW480 [4] and in the experiment with MCF7 [5] were 40.1 and 40.8, respectively. The Ratio in experiment [2] worked out at 1.07.
As for `COc1ccc(C(=O)C[n+]2ccn(Cc3c(-c4ccccc4)oc4ccccc34)c2)cc1`, the IC50 in the experiment with HL-60 worked out at 2.28 µM; in the experiment on SW480 [1] it was 11.9 µM; in the experiment with A549, 16.3 µM; with SMMC-7721, 16.5 µM; in the experiment on MCF7 [3], 10.3 µM. Besides, the Ratio in experiment [2] stood at 1.12.
Take `O=C(C[n+]1cn(Cc2c(-c3ccccc3)oc3ccccc23)c2ccccc21)c1ccccc1`: the IC50 is 1.97 µM in the experiment on HL-60; 3.44 µM in the experiment with SW480 [1]; 12.2 µM in the experiment on A549; 8.46 µM in the experiment with SMMC-7721; 3.92 µM in the experiment on MCF7 [3].
The corresponding values for `O=C(C[n+]1cn(Cc2c(-c3ccccc3)oc3ccccc23)c2ccccc21)c1ccc2ccccc2c1` are 2.34 µM, 3.61 µM, 4.5 µM, 2.63 µM and 3.24 µM.
For `CCc1n(Cc2c(-c3ccccc3)oc3ccccc23)cc[n+]1CC(=O)c1ccc(Br)cc1`, the IC50 is 0.72 µM in the experiment on HL-60; 3.58 µM with SW480 [1]; 12.8 µM with A549; 6.07 µM in the experiment on SMMC-7721; 2.89 µM with MCF7 [3].
`O=C(C[n+]1cn(Cc2c(-c3ccccc3)oc3ccccc23)c2ccccc21)c1ccc(Br)cc1`: the 50% inhibitory concentration (IC50) worked out at 2.11 µM in the experiment with HL-60; 4.37 µM in the experiment with SW480 [1]; 5.25 µM in the experiment on A549; 2.94 µM in the experiment on SMMC-7721; 4.08 µM in the experiment on MCF7 [3].
Regarding `COc1ccc(C(=O)C[n+]2cn(Cc3c(-c4ccccc4)oc4ccccc34)c3ccccc32)cc1`, the IC50 in the experiment on HL-60 was 0.61 µM; in the experiment with SW480 [1], greater than 40 µM; in the experiment with A549, 9.12 µM; in the experiment with SMMC-7721 it was 16.6 µM; with MCF7 [3] it was 23.8 µM. For the same compound, the Ratio in experiment [2] is 1.32.
Regarding `O=C(C[n+]1cnn(Cc2c(-c3ccccc3)oc3ccccc23)c1)c1ccc(Br)cc1`, the IC50 with HL-60 came out at 9.71 µM; in the experiment with SW480 [1], 14.6 µM; with A549 it was 14.6 µM; in the experiment with SMMC-7721 it was 10.8 µM; in the experiment with MCF7 [3], 10.4 µM.
As for `O=C(C[n+]1ccn(Cc2c(-c3ccccc3)oc3ccccc23)c1)c1ccc2ccccc2c1`, the IC50 was determined as 2.06 µM in the experiment with HL-60; 3.48 µM in the experiment with SW480 [1]; 14 µM in the experiment on A549; 9.42 µM in the experiment on SMMC-7721; 3.68 µM with MCF7 [3].
As for `Brc1ccccc1C[n+]1cn(Cc2c(-c3ccccc3)oc3ccccc23)c2ccccc21`, the IC50 with HL-60 came to 0.64 µM; in the experiment with SW480 [1], 5.56 µM; in the experiment with A549, 3.34 µM; in the experiment on SMMC-7721 it was 2.1 µM; with MCF7 [3] it was 4.78 µM. Besides, in experiment [2], the Ratio worked out at 1.52.
In the case of `CO[C@H]1C[C@@H]2CC[C@@H](C)[C@@](O)(O2)C(=O)C(=O)N2CCCC[C@H]2C(=O)O[C@H]([C@H](C)C[C@@H]2CC[C@@H](O)[C@H](OC)C2)CC(=O)[C@H](C)/C=C(\C)[C@@H](O)[C@@H](OC)C(=O)[C@H](C)C[C@H](C)/C=C/C=C/C=C/1C`, in experiment [2], the Ratio was determined as 1.59.
For `CCc1n(Cc2c(-c3ccccc3)oc3ccccc23)cc[n+]1CC(=O)c1ccc(O)cc1`, the IC50 with HL-60 was 13.2 µM; in the experiment with SW480 [1] it was greater than 40 µM; in the experiment on A549, 27.1 µM; in the experiment on SMMC-7721, 13.1 µM; in the experiment on MCF7 [3], 17.4 µM.
In the case of `O=C(C[n+]1cnn(Cc2c(-c3ccccc3)oc3ccccc23)c1)c1ccc(O)cc1`, the IC50 in the experiment with HL-60, in the experiment with SW480 [1], with A549, in the experiment on SMMC-7721 and in the experiment with MCF7 [3] was greater than 40 µM in each case.
Turning to `O=C(C[n+]1cn(Cc2c(-c3ccccc3)oc3ccccc23)c2ccccc21)c1ccc(O)cc1`, the IC50 with HL-60 was found to be 13 µM; in the experiment with SW480 [1], 18.2 µM; in the experiment with A549 it was 34 µM; in the experiment with SMMC-7721, 20.7 µM; with MCF7 [3] it was 16.2 µM.
As for `c1ccc(C[n+]2cn(Cc3c(-c4ccccc4)oc4ccccc34)c3ccccc32)cc1`, the IC50 in the experiment with HL-60 is 1.96 µM; in the experiment on SW480 [1] it was 3.26 µM; in the experiment with A549, 7.09 µM; in the experiment on SMMC-7721, 4.81 µM; in the experiment on MCF7 [3] it was 3.49 µM. In addition, the Ratio in experiment [2] amounted to 1.54.
As to `CCCC[n+]1cnn(Cc2c(-c3ccccc3)oc3ccccc23)c1`, the IC50 in the experiment with HL-60, in the experiment on SW480 [1], with A549, in the experiment with SMMC-7721 and in the experiment with MCF7 [3] was greater than 40 µM in each case.
Consider `O=C(C[n+]1cnn(Cc2c(-c3ccccc3)oc3ccccc23)c1)c1ccc(F)cc1`, for which the IC50 is 9.67 µM in the experiment on HL-60; 16.8 µM in the experiment with SW480 [1]; 15.1 µM with A549; 9.21 µM with SMMC-7721; 16.4 µM in the experiment with MCF7 [3].
Take `CCc1nccn1Cc1c(-c2ccccc2)oc2ccccc12`: the IC50 in the experiment with HL-60, in the experiment on SW480 [1], with A549, in the experiment with SMMC-7721 and in the experiment on MCF7 [3] was greater than 40 µM in each case.
Take `O=C(C[n+]1cn(Cc2c(-c3ccccc3)oc3ccccc23)c2ccccc21)c1ccc(F)cc1`: the half-maximal inhibitory concentration (IC50) with HL-60 stood at 2.03 µM; in the experiment with SW480 [1], 3.29 µM; with A549, 11.8 µM; in the experiment on SMMC-7721 it was 9.41 µM; in the experiment with MCF7 [3] it was 3.13 µM.

These data come from ChEMBL document CHEMBL2406955, “Synthesis and cytotoxic activities of novel hybrid 2-phenyl-3-alkylbenzofuran and imidazole/triazole compounds” (Bioorg Med Chem Lett, 2013).
